Here are results for 6 compounds from ChEMBL document CHEMBL6177948, “Discovery of potential Leonurine-based therapeutic lead MJ210 attenuates Parkinson's disease pathogenesis via NF-κB and MAPK pathways: Mechanistic insights from in vitro and in vivo rotenone models” (Eur J Med Chem, 2025).

Bounds are passed on as bounds.

The subject of this assay is SH-SY5Y. Kind of assay: Neuroprotective activity against rotenone-induced cytotoxicity in human SH-SY5Y cells assessed as increase in cell viability at 1 to 20 uM incubated for 24 hrs by MTT assay relative to control. It counts as functional. The settings on record: dose 1-20 µM.

Regarding `COc1ccc(N2CCN(C(=O)CCc3cc(OC)c(OC(=O)c4ccccn4)c(OC)c3)CC2)cc1`, the Activity was over 80%.

Turning to `COc1cc(CCC(=O)N2CCCCC2)cc(OC)c1OC(=O)C1CCCN1C(=O)OC(C)(C)C` (stereo unspecified), the Activity is given as over 80%.

Take `COc1cc(/C=C/C(=O)N2CCCCC2)cc(OC)c1OC(=O)c1ccccn1`: the Activity is listed as over 80%.

Consider `COc1cc(CCC(=O)NCc2ccc3c(c2)OCO3)cc(OC)c1OC(=O)c1ccccn1`, for which the Activity is reported as over 80%.

For the compound `COc1cc(CCC(=O)Nc2nc3ccccc3s2)cc(OC)c1OC(=O)C1CCCN1C(=O)OC(C)(C)C` (stereo unspecified), the Activity is over 80%.

Regarding `COc1cc(CCC(=O)N2CCN(c3ccccc3)CC2)cc(OC)c1OC(=O)c1ccccn1`, the Activity is over 80%.
